This passage reports Kd results from ChEMBL document CHEMBL3991601, “The target landscape of clinical kinase drugs” (Science, 2017).

Targets include Misshapen-like kinase 1 (Homo sapiens, UniProt Q8N4C8); Myosin-10 (Homo sapiens, UniProt P35580); Obg-like ATPase 1 (Homo sapiens, UniProt Q9NTK5).
Assay [1] addresses T1, Eukaryotic translation initiation factor 5B (Homo sapiens, UniProt O60841).
T1 sequence (O60841 whole entry): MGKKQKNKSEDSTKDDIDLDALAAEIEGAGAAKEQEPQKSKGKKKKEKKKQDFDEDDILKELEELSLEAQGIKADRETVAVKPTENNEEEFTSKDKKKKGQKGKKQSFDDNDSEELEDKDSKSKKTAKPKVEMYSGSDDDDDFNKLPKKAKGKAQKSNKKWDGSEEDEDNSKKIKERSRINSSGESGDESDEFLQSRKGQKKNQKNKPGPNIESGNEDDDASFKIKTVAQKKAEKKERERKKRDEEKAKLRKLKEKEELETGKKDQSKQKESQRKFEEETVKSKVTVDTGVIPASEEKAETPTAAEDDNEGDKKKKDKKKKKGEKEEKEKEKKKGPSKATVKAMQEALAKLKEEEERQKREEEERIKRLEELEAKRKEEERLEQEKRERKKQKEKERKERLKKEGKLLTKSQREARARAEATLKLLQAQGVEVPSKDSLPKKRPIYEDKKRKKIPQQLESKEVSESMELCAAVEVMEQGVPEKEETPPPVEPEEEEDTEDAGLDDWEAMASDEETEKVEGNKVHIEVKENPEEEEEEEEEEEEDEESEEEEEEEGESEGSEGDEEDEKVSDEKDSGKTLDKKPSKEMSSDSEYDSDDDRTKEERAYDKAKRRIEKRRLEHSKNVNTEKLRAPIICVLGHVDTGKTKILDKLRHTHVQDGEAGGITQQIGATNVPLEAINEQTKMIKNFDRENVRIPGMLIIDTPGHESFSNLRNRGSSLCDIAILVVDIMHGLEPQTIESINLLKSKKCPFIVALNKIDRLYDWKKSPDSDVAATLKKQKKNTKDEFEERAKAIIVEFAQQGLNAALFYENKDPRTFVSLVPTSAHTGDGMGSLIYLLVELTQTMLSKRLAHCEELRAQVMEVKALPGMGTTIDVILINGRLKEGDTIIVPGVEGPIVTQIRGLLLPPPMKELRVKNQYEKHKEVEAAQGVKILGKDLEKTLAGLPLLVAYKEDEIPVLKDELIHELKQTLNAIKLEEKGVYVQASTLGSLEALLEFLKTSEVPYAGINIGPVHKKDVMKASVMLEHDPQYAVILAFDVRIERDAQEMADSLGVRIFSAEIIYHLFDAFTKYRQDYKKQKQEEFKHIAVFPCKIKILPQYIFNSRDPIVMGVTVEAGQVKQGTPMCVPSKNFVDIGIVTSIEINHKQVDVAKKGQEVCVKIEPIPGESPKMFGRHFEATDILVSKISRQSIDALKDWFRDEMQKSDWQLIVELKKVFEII

Assay [2] concerns the target Serine/threonine-protein kinase 24 (Homo sapiens, UniProt Q9Y6E0).
Assay [3] deals with Hepatocyte growth factor receptor (Homo sapiens, UniProt P08581).
Chain of Hepatocyte growth factor receptor (P08581 whole entry): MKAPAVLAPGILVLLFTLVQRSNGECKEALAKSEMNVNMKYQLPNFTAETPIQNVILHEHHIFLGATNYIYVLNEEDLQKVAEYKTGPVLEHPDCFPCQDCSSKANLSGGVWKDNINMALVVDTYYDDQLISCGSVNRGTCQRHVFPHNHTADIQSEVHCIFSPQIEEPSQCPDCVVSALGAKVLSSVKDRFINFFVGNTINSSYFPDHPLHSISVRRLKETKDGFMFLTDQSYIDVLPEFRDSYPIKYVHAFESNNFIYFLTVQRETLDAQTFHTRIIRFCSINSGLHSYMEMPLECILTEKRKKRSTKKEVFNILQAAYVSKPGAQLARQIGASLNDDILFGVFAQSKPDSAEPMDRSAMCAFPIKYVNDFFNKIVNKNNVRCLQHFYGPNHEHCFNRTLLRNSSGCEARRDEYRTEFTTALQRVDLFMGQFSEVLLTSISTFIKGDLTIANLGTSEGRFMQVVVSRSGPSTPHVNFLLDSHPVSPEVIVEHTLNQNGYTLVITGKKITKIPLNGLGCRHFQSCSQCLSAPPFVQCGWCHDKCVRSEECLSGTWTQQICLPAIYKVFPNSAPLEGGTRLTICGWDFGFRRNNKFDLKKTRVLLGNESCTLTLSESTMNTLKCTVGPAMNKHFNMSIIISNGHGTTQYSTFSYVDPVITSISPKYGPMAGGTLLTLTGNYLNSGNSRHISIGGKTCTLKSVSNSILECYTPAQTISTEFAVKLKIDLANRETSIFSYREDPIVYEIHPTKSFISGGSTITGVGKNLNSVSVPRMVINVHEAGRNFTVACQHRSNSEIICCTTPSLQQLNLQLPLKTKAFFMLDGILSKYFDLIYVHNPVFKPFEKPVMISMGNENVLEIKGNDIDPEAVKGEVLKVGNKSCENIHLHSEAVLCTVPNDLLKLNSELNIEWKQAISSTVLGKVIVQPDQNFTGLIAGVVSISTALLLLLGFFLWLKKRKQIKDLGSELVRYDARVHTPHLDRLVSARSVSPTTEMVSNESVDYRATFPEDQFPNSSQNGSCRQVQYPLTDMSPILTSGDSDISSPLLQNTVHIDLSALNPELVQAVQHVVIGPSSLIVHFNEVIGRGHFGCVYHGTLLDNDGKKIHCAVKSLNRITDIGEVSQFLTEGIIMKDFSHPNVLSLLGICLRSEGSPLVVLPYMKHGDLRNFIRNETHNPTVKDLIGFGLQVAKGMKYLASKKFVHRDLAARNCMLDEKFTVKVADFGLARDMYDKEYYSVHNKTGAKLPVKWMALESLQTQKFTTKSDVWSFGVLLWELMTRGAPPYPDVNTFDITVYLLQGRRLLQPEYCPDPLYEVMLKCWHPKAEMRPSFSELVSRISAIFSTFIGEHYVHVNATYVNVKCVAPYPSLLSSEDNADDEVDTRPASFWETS
Assay [4] has as its target Mitogen-activated protein kinase 14 (Homo sapiens, UniProt Q16539).
The target in assay [5] is T2, Isoleucine--tRNA ligase, mitochondrial (Homo sapiens, UniProt Q9NSE4).
T2 sequence (Q9NSE4 whole entry): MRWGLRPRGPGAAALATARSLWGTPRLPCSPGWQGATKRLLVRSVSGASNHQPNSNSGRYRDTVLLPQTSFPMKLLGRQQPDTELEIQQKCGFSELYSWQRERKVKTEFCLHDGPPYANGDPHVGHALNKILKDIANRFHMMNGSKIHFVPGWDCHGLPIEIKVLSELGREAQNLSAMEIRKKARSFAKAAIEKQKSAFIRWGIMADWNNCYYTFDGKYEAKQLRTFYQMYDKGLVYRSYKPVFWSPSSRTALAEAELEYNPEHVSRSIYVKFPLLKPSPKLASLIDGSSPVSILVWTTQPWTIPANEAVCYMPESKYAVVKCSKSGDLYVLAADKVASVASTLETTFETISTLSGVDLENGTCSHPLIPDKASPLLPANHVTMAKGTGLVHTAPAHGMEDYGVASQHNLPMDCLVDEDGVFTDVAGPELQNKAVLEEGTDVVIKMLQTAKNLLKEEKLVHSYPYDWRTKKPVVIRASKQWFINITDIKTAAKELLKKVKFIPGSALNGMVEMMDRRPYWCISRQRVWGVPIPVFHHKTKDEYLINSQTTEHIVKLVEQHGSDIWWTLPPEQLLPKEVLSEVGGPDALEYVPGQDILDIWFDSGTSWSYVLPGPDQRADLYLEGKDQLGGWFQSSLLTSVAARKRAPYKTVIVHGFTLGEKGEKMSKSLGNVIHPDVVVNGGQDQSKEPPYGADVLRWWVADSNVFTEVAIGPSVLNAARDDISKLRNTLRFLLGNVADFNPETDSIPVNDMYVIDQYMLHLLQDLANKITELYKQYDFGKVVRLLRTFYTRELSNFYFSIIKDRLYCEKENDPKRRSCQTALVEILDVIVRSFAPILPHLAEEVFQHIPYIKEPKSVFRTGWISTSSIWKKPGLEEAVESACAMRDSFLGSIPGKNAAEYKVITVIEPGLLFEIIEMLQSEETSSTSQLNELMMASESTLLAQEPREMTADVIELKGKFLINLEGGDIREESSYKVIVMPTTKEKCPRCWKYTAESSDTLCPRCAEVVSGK

Assay [6] concerns the target Serine/threonine-protein kinase 38-like (Homo sapiens, UniProt Q9Y2H1).
Assay [7] deals with Serine/threonine-protein kinase PLK1 (Homo sapiens, UniProt P53350).
Chain of Serine/threonine-protein kinase PLK1 (P53350 whole entry): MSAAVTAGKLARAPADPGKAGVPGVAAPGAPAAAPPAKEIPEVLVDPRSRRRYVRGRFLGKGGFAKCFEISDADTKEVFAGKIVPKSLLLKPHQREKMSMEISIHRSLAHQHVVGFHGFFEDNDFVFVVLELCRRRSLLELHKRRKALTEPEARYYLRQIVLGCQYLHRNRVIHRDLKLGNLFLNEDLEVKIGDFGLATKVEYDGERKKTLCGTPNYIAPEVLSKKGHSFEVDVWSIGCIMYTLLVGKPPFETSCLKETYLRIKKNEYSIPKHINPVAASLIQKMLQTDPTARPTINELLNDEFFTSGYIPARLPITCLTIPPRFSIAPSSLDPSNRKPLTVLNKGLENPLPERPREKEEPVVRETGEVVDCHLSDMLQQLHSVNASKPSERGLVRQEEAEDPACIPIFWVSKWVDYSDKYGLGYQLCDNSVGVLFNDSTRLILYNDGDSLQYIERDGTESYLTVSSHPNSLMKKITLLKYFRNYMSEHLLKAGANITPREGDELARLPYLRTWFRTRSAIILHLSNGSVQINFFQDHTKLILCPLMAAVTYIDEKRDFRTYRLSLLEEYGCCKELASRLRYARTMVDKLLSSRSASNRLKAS
The target in assay [8] is Epidermal growth factor receptor (Homo sapiens, UniProt P00533).
Chain of Epidermal growth factor receptor (P00533 whole entry): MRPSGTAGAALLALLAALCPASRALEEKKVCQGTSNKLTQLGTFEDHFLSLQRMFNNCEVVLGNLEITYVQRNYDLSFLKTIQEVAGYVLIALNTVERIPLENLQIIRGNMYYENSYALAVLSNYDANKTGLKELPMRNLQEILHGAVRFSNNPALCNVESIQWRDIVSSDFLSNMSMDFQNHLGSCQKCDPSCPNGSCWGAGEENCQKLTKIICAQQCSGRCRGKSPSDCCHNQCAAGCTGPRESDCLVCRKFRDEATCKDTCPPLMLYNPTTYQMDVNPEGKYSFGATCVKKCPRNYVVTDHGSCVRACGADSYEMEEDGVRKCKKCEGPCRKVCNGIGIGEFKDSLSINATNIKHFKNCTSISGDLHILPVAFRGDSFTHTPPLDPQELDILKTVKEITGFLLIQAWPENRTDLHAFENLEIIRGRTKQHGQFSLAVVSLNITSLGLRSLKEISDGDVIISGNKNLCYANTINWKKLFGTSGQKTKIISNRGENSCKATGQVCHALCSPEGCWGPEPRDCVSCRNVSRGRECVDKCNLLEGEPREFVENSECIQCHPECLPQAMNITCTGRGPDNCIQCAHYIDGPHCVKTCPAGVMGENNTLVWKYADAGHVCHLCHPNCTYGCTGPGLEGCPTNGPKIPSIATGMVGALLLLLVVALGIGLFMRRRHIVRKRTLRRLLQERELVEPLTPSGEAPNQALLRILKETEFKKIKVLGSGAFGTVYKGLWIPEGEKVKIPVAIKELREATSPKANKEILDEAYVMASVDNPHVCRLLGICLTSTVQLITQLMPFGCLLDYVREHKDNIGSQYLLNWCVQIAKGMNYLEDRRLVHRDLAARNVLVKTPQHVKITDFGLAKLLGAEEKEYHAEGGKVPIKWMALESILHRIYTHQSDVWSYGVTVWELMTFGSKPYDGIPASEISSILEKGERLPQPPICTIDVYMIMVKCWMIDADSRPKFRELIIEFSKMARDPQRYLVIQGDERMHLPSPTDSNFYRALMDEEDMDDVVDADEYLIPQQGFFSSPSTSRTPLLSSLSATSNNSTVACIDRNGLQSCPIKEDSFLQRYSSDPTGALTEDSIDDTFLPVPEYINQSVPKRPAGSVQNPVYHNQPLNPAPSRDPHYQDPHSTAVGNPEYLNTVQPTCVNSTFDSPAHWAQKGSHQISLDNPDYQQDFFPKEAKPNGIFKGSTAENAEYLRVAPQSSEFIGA

The source made the active and inactive calls.
Further: in the data inactive means no Kd found up to 30 µM.

Chain of Obg-like ATPase 1 (Q9NTK5 whole entry, looked up): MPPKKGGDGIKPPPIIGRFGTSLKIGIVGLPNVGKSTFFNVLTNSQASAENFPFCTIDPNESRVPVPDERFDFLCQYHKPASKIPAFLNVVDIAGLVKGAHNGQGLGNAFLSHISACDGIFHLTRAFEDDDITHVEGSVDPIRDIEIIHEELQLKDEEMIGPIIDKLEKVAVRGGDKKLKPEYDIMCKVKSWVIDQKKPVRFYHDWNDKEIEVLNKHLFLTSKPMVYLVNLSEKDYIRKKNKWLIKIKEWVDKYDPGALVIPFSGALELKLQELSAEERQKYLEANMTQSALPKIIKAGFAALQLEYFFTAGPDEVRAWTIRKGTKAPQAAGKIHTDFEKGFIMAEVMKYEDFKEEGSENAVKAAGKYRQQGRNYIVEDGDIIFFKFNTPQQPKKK
Chain of Serine/threonine-protein kinase 38-like (Q9Y2H1 whole entry): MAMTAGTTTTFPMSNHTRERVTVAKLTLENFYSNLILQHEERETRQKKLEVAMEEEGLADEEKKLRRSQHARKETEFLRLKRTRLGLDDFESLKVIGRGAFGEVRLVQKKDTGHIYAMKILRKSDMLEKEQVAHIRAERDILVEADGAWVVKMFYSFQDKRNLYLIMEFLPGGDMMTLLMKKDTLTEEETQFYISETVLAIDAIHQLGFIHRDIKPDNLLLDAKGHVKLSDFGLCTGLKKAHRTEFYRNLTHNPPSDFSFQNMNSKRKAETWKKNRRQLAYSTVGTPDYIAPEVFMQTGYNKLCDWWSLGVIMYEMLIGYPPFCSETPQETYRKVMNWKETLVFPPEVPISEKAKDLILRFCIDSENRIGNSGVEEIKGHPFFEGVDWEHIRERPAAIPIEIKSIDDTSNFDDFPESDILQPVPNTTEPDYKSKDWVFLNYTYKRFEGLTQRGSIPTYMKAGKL
Chain of Serine/threonine-protein kinase 24 (Q9Y6E0 whole entry): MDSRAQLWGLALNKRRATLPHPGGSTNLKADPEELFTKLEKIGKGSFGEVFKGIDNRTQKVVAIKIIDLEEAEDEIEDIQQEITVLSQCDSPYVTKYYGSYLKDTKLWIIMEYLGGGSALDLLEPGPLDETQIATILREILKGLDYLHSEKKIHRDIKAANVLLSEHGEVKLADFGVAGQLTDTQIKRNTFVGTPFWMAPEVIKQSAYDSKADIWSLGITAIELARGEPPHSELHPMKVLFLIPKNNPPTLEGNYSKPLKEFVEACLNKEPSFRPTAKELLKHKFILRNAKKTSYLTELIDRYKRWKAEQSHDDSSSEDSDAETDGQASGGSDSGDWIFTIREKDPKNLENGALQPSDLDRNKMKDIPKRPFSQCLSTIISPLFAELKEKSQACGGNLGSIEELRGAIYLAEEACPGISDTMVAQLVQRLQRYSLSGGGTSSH
Chain of Mitogen-activated protein kinase 14 (Q16539 whole entry): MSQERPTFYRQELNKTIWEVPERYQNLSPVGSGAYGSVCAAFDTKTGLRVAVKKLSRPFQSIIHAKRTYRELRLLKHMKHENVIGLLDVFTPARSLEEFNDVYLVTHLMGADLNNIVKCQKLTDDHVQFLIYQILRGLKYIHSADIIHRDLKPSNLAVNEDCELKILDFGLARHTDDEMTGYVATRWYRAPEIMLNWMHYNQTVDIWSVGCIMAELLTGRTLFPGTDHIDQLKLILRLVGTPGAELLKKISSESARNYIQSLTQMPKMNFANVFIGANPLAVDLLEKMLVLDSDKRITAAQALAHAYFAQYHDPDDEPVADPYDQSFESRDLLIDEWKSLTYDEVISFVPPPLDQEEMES

For the molecule `COc1cc2nccc(Oc3ccc(NC(=O)NC4CC4)c(Cl)c3)c2cc1C(N)=O` [LENVATINIB], the Kd was > 30 µM (inactive) on Misshapen-like kinase 1; > 30 µM (inactive) in assay [1]; > 30 µM (inactive) in assay [2]; > 30 µM (inactive) in [3]; > 30 µM (inactive) at Myosin-10; 0.217 µM (active) in [4]. In addition, the Kd (in assay [5]; in [6]; at Obg-like ATPase 1) was > 30 µM (inactive) each time.
Regarding `Cc1ccc(NC(=O)c2ccc(CN3CC[C@H](N(C)C)C3)c(C(F)(F)F)c2)cc1Nc1nccc(-c2cncnc2)n1` [BAFETINIB], the Kd was > 30 µM (inactive) in assay [7]; > 30 µM (inactive) in assay [3]; > 30 µM (inactive) on Myosin-10; 0.536 µM (active) in [4]; > 30 µM (inactive) in [6]; > 30 µM (inactive) in assay [8]. Also, the Kd at Obg-like ATPase 1 is > 30 µM (inactive).
In the case of `C[C@@H]1CN(Cc2ccc(F)cc2)[C@@H](C)CN1C(=O)c1cc2c(C(=O)C(=O)N(C)C)cn(C)c2cc1Cl` [TALMAPIMOD], the Kd (in assay [3]; in [6]; in [8]; at Obg-like ATPase 1) was > 30 µM (inactive) in each case.
Consider `CCS(=O)(=O)N1CC(CC#N)(n2cc(-c3ncnc4[nH]ccc34)cn2)C1` [BARICITINIB], for which the Kd (on Misshapen-like kinase 1; in assay [1]; in assay [2]; in assay [3]; on Myosin-10; in assay [4]) was > 30 µM (inactive) throughout. Further, the Kd (in assay [5]; in [6]; in assay [8]; at Obg-like ATPase 1) was > 30 µM (inactive) in each case.
For the molecule `COc1ccc(-c2ccc3c(N4CCOC[C@@H]4C)nc(N4CCOC[C@@H]4C)nc3n2)cc1CO` [AZD-8055], the Kd (on Misshapen-like kinase 1; in [1]; in [2]; in assay [3]; at Myosin-10; in assay [4]) was > 30 µM (inactive) in each case. The Kd (in assay [5]; in assay [6]; in assay [8]; on Obg-like ATPase 1) was > 30 µM (inactive) throughout.
In the case of `C=CC(=O)N1CCC(Oc2cc3c(Nc4ccc(Cl)c(Cl)c4F)ncnc3cc2OC)CC1` [POZIOTINIB], the Kd is > 30 µM (inactive) on Misshapen-like kinase 1; > 30 µM (inactive) in assay [1]; > 30 µM (inactive) in assay [2]; 0.794 µM in assay [3]; > 30 µM (inactive) in assay [4]; > 30 µM (inactive) in [6]. For the same molecule, on Obg-like ATPase 1, the Kd is > 30 µM (inactive).
Consider `C[C@@H](c1ccc2nccn2c1)n1nnc2ncc(-c3cnn(C)c3)nc21` [SAVOLITINIB], for which the Kd (at Misshapen-like kinase 1; in assay [1]; in [2]; in assay [4]; in assay [5]; in [6]) was > 30 µM (inactive) throughout. The Kd in [8] was > 30 µM (inactive).
`CCc1cnn2c(NCc3ccc[n+]([O-])c3)cc(N3CCCC[C@H]3CCO)nc12` [DINACICLIB]: the Kd (on Misshapen-like kinase 1; in assay [1]; in assay [2]; on Myosin-10; in [5]; in [6]) was > 30 µM (inactive) each time. In addition, the Kd (in assay [8]; at Obg-like ATPase 1) was > 30 µM (inactive) throughout.
With `CCCS(=O)(=O)Nc1ccc(F)c(C(=O)c2c[nH]c3ncc(-c4ccc(Cl)cc4)cc23)c1F` [VEMURAFENIB], the Kd (in assay [7]; in assay [3]; on Myosin-10; in assay [4]; in assay [6]; on Obg-like ATPase 1) was > 30 µM (inactive) each time.
On to `Cc1cc2c(F)c(Oc3ncnn4cc(OC[C@@H](C)OC(=O)[C@H](C)N)c(C)c34)ccc2[nH]1` [BRIVANIB ALANINATE], for which the Kd (in [2]; in assay [3]; on Myosin-10; in [4]; in assay [6]; in assay [8]) was > 30 µM (inactive) each time.
In the case of `O=c1sn(-c2cccc3ccccc23)c(=O)n1Cc1ccccc1` [TIDEGLUSIB], the Kd (on Misshapen-like kinase 1; in [2]; in [4]; in assay [5]; in [6]; in assay [8]) was > 30 µM (inactive) throughout. The Kd on Obg-like ATPase 1 is > 30 µM (inactive).
Regarding `COC(=O)[C@@]1(O)C[C@H]2O[C@]1(C)n1c3ccccc3c3c4c(c5c6ccccc6n2c5c31)C(=O)NC4` [K-252A], the Kd on Misshapen-like kinase 1 was > 30 µM (inactive); in [1] it was > 30 µM (inactive); in assay [2] it was > 30 µM (inactive); in assay [3] it was > 30 µM (inactive); in assay [4], > 30 µM (inactive); in assay [6] it was 2.14 µM (active). Also, in assay [8], the Kd was > 30 µM (inactive).
`CNC(=O)CN1CCC(Oc2cc3c(Nc4cccc(Cl)c4F)ncnc3cc2OC)CC1` [SAPITINIB]: the Kd (on Misshapen-like kinase 1; in assay [1]; in assay [2]; in assay [3]; in assay [4]; in [6]) was > 30 µM (inactive) in each case.
`CCN1CCN(Cc2ccc(-c3cc4c(N[C@H](C)c5ccccc5)ncnc4[nH]3)cc2)CC1` [AEE-788]: the Kd in assay [7], in assay [1], in assay [2], in assay [3], in assay [4] and in assay [6] was > 30 µM (inactive) in each case. Also, the Kd on Obg-like ATPase 1 is > 30 µM (inactive).

In general, Kd refers to the equilibrium constant for the complex coming apart.
